Measured values as given in patent US20080090805A1, “CB-1 MODULATING COMPOUNDS AND THEIR USE” (ACADIA PHARMACEUTICALS INC., priority 2005, published 2008).

The compounds below were run against native CB1 receptors (Rattus norvegicus, UniProt P20272) (assay: CB1 receptor rat binding assay ([3H]SR141716A, rat brain membranes)). Details: rat brain membranes, [3H]SR141716A.
native CB1 receptors, sequence (P20272 whole entry): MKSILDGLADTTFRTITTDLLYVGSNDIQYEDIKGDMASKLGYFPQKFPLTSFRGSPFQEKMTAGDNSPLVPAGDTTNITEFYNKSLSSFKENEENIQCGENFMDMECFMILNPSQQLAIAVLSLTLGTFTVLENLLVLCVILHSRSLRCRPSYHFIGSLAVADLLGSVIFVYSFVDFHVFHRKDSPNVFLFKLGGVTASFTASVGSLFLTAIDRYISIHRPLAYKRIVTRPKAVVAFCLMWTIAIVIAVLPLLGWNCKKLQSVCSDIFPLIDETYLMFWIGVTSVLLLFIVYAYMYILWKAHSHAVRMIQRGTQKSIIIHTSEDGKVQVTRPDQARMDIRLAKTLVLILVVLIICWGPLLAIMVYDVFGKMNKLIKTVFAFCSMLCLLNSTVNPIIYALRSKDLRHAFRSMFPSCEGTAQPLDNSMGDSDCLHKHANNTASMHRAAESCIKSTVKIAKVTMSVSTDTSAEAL

SMILES | Binding rat Inh % [%]
C[C@@H]1CCC[C@H](C)N1NC(=O)c1ccc2c(c1)N=C(c1ccc(Cl)c(Cl)c1)c1ccccc1S2 [drawing 1393] | 114
CCCCNC(=O)c1ccc2c(c1)N=C(c1ccc(Cl)c(Cl)c1)c1ccccc1S2 [drawing 1311] | 94
O=C(NCc1ccco1)c1ccc2c(c1)N=C(c1ccc(Cl)c(Cl)c1)c1ccccc1S2 [drawing 1402] | 84
O=C(NCCc1ccncc1)c1ccc2c(c1)N=C(c1ccc(Cl)s1)c1ccccc1S2 [drawing 1540] | 109
CCCCNC(=O)c1ccc2c(c1)N=C(c1ccc(Cl)cc1)c1ccc(Cl)cc1S2 [drawing 1187] | 94
O=C(NCCc1ccccn1)c1ccc2c(c1)N=C(c1ccc(Cl)cc1F)c1ccccc1S2 [drawing 1398] | 74
O=C(NCCc1ccccn1)c1ccc2c(c1)N=C(c1ccc(Br)cc1)c1ccccc1S2 [drawing 1460] | 61
Cc1ccc(CNC(=O)c2ccc3c(c2)N=C(c2ccc(F)cc2)c2ccccc2S3)o1 [drawing 1239] | 108
O=C(NCc1cccs1)c1ccc2c(c1)N=C(c1cccc(Cl)c1)c1ccccc1S2 [drawing 1272] | 109
Cc1ccsc1C1=Nc2cc(C(=O)NCc3cccs3)ccc2Sc2ccccc21 [drawing 1344] | 99
O=C(NCCc1cccnc1)c1ccc2c(c1)N=C(c1ccc(Cl)cc1)c1ccccc1S2 [drawing 1334] | 103
COc1cccc(C2=Nc3cc(C(=O)NCc4ccc(C)o4)ccc3Sc3ccccc32)n1 [drawing 1458] | 90
O=C(NCCC(F)(F)F)c1ccc2c(c1)N=C(c1ccc(Cl)cc1)c1ccccc1S2 [drawing 1360] | 99
O=C(NCc1cccnc1)c1ccc2c(c1)N=C(c1cccc(Br)c1)c1ccccc1S2 [drawing 1278] | 80
O=C(NN1CCCCC1)c1ccc2c(c1)N=C(c1cccc(F)c1)c1ccccc1S2 [drawing 1374] | 94
Clc1ccc(C2=Nc3cc(-c4ncc[nH]4)ccc3Sc3ccccc32)cc1 [drawing 1485] | 81
O=C(NC1CCC(F)(F)CC1)c1ccc2c(c1)N=C(c1cccc(Cl)c1)c1ccccc1S2 [drawing 1242] | 79
O=C(NNCC(F)(F)F)c1ccc2c(c1)N=C(c1ccc(Cl)cc1)c1ccccc1S2 [drawing 1488] | 70
Cc1csc(CNC(=O)c2ccc3c(c2)N=C(c2cccc(C)n2)c2ccccc2S3)c1 [drawing 1263] | 94
O=C(NNCC(F)(F)F)c1ccc2c(c1)N=C(c1cccc(Cl)c1)c1ccccc1S2 [drawing 1467] | 97
COc1ccc(C2=Nc3cc(C(=O)NCc4cccnc4)ccc3Sc3ccccc32)cc1 [drawing 1438] | 60
Cc1csc(CNC(=O)c2ccc3c(c2)N=C(c2ccc(Cl)s2)c2ccccc2S3)c1 [drawing 1232] | 90
Cc1ccc(CNC(=O)c2ccc3c(c2)N=C(c2ccsc2)c2ccccc2S3)o1 [drawing 1346] | 89
CC(C)CNC(=O)c1ccc2c(c1)N=C(c1ccc(Cl)cn1)c1ccc(Cl)cc1S2 [drawing 1506] | 90
O=C(NCc1ccncc1)c1ccc2c(c1)N=C(c1ccc(Cl)cc1)c1ccccc1S2 [drawing 1294] | 77

Next, values leading:

Binding rat Inh % [%] | SMILES
103 | Cc1ccsc1C1=Nc2cc(C(=O)NCCC(F)(F)F)ccc2Sc2ccccc21 [drawing 1198]
59 | Cc1ccsc1C1=Nc2cc(C(=O)NN3CCCCC3)ccc2Sc2ccccc21 [drawing 1182]
98 | CCCCNC(=O)c1ccc2c(c1)N=C(c1ccc(Cl)cc1Cl)c1ccccc1S2 [drawing 1406]
92 | O=C(NCCCC(F)(F)F)c1ccc2c(c1)N=C(c1ccccn1)c1ccccc1S2 [drawing 1473]
80 | CC(C)NC(=O)c1ccc2c(c1)N=C(c1ccc(F)cc1)c1ccccc1S2 [drawing 1429]
71 | C[C@@H]1CCC[C@H](C)N1NC(=O)c1ccc2c(c1)N=C(c1ccc(Cl)cc1F)c1ccccc1S2 [drawing 1474]
108 | CCCCNC(=O)c1ccc2c(c1)N=C(c1cccc(Cl)c1)c1cc(F)ccc1S2 [drawing 1447]
85 | O=C(NCCC(F)(F)F)c1ccc2c(c1)N=C(c1ccc(Cl)s1)c1ccccc1S2 [drawing 1273]
89 | CCCNC(=O)c1ccc2c(c1)N=C(c1ccc(Cl)s1)c1ccccc1S2 [drawing 1236]
60 | Cc1ccsc1C1=Nc2cc(C(=O)NC(C)C)ccc2Sc2ccccc21 [drawing 1478]
63 | CCOCCNC(=O)c1ccc2c(c1)N=C(c1ccc(F)cc1)c1ccccc1S2 [drawing 1446]
91 | COc1ccc(C2=Nc3cc(C(=O)NC4CCCCC4)ccc3Sc3ccccc32)cc1 [drawing 1282]
88 | O=C(NCCC(F)(F)F)c1ccc2c(c1)N=C(c1cccc(Cl)c1)c1ccccc1S2 [drawing 1250]
80 | COCCNC(=O)c1ccc2c(c1)N=C(c1cccc(Cl)c1)c1ccccc1S2 [drawing 1461]
72 | O=C(NN1CCCCCC1)c1ccc2c(c1)N=C(c1ccc(Cl)cc1Cl)c1ccccc1S2 [drawing 1522]
96 | CCCCNC(=O)c1ccc2c(c1)N=C(c1ccc(Cl)c(F)c1)c1ccccc1S2 [drawing 1274]
93 | CCCCNC(=O)c1ccc2c(c1)N=C(c1ccc(Cl)s1)c1ccc(F)cc1S2 [drawing 1267]
72 | Cc1ccsc1C1=Nc2cc(C(=O)NC3CCCCC3)ccc2Sc2ccccc21 [drawing 1531]
73 | O=C(NC1CCC(F)(F)CC1)c1ccc2c(c1)N=C(c1ccccn1)c1ccccc1S2 [drawing 1414]
79 | COc1ccc(C2=Nc3cc(C(=O)NCC(C)C)ccc3Sc3ccccc32)cc1 [drawing 1508]
78 | C[C@@H]1CCC[C@H](C)N1NC(=O)c1ccc2c(c1)N=C(c1ccccc1F)c1ccccc1S2 [drawing 1495]

Same assay, conditions: rat brain membranes, [3H]SR141716A; read-out: Binding rat pKi (converted)

SMILES | Ki [µM]
C[C@@H]1CCC[C@H](C)N1NC(=O)c1ccc2c(c1)N=C(c1ccc(Cl)c(Cl)c1)c1ccccc1S2 [drawing 1393] | 0.00501
CCCCNC(=O)c1ccc2c(c1)N=C(c1ccc(Cl)c(Cl)c1)c1ccccc1S2 [drawing 1311] | 0.00316
O=C(NCc1ccco1)c1ccc2c(c1)N=C(c1ccc(Cl)c(Cl)c1)c1ccccc1S2 [drawing 1402] | 0.00631
O=C(NCCc1ccncc1)c1ccc2c(c1)N=C(c1ccc(Cl)s1)c1ccccc1S2 [drawing 1540] | 0.0126
CCCCNC(=O)c1ccc2c(c1)N=C(c1ccc(Cl)cc1)c1ccc(Cl)cc1S2 [drawing 1187] | 0.0126
O=C(NCCc1ccccn1)c1ccc2c(c1)N=C(c1ccc(Cl)cc1F)c1ccccc1S2 [drawing 1398] | 0.0398
O=C(NCCc1ccccn1)c1ccc2c(c1)N=C(c1ccc(Br)cc1)c1ccccc1S2 [drawing 1460] | 0.0501
Cc1ccc(CNC(=O)c2ccc3c(c2)N=C(c2ccc(F)cc2)c2ccccc2S3)o1 [drawing 1239] | 0.000794
O=C(NCc1cccs1)c1ccc2c(c1)N=C(c1cccc(Cl)c1)c1ccccc1S2 [drawing 1272] | 0.002
Cc1ccsc1C1=Nc2cc(C(=O)NCc3cccs3)ccc2Sc2ccccc21 [drawing 1344] | 0.00398
O=C(NCCc1cccnc1)c1ccc2c(c1)N=C(c1ccc(Cl)cc1)c1ccccc1S2 [drawing 1334] | 0.0251
CC(NC(=O)c1ccc2c(c1)N=C(c1ccccc1)c1ccccc1S2)c1ccccc1 (stereo not drawn) [drawing 1379] | 0.0316
COc1cccc(C2=Nc3cc(C(=O)NCc4ccc(C)o4)ccc3Sc3ccccc32)n1 [drawing 1458] | 0.00794
O=C(NCCC(F)(F)F)c1ccc2c(c1)N=C(c1ccc(Cl)cc1)c1ccccc1S2 [drawing 1360] | 0.00398
O=C(NCc1cccnc1)c1ccc2c(c1)N=C(c1cccc(Br)c1)c1ccccc1S2 [drawing 1278] | 0.02
O=C(NN1CCCCC1)c1ccc2c(c1)N=C(c1cccc(F)c1)c1ccccc1S2 [drawing 1374] | 0.0316
Clc1ccc(C2=Nc3cc(-c4ncc[nH]4)ccc3Sc3ccccc32)cc1 [drawing 1485] | 0.0631
O=C(NCc1ccc(F)cc1)c1ccc2c(c1)N=C(c1ccc(Cl)cc1)c1ccccc1S2(=O)=O [drawing 1316] | 0.0251
O=C(NC1CCC(F)(F)CC1)c1ccc2c(c1)N=C(c1cccc(Cl)c1)c1ccccc1S2 [drawing 1242] | 0.001
O=C(NCCc1ccc(Cl)cc1)c1ccc2c(c1)N=C(c1ccccc1F)c1ccccc1S2 [drawing 1228] | 0.0158

SMILES | Ki [µM]
O=C(NNCC(F)(F)F)c1ccc2c(c1)N=C(c1ccc(Cl)cc1)c1ccccc1S2 [drawing 1488] | 0.01
CC(CNC(=O)c1ccc2c(c1)N=C(c1ccc(Cl)cc1)c1ccccc1S2)c1ccccc1 (stereo not drawn) [drawing 1288] | 0.002
Cc1csc(CNC(=O)c2ccc3c(c2)N=C(c2cccc(C)n2)c2ccccc2S3)c1 [drawing 1263] | 0.00158
O=C(NCCc1cccc(Cl)c1)c1ccc2c(c1)N=C(c1ccccc1F)c1ccccc1S2 [drawing 1459] | 0.0501
O=C(NCc1cccc(Cl)c1)c1ccc2c(c1)N=C(c1ccc(F)cc1)c1ccccc1S2(=O)=O [drawing 1408] | 0.00631
CC(NC(=O)c1ccc2c(c1)N=C(c1ccccc1F)c1ccccc1S2)c1ccccc1 (stereo not drawn) [drawing 1422] | 0.0398
O=C(NNCC(F)(F)F)c1ccc2c(c1)N=C(c1cccc(Cl)c1)c1ccccc1S2 [drawing 1467] | 0.0501
COc1ccc(C2=Nc3cc(C(=O)NCc4cccnc4)ccc3Sc3ccccc32)cc1 [drawing 1438] | 0.0501
Cc1csc(CNC(=O)c2ccc3c(c2)N=C(c2ccc(Cl)s2)c2ccccc2S3)c1 [drawing 1232] | 0.000794
CCN(CCNC(=O)c1ccc2c(c1)N=C(c1ccccc1F)c1ccccc1S2)c1ccccc1 [drawing 1302] | 0.02
O=C(c1ccc2c(c1)N=C(c1ccc(F)cc1)c1ccccc1S2)N1CCCCC1 [drawing 1544] | 0.1
O=C(NCc1ccc(F)cc1)c1ccc2c(c1)N=C(c1ccc(Cl)cc1)c1ccccc1S2 [drawing 1287] | 0.002
Cc1ccc(CNC(=O)c2ccc3c(c2)N=C(c2ccsc2)c2ccccc2S3)o1 [drawing 1346] | 0.00398
O=C(NCCc1ccccc1)c1ccc2c(c1)N=C(c1ccccc1)c1ccccc1S2 [drawing 1332] | 0.0251
CC(C)CNC(=O)c1ccc2c(c1)N=C(c1ccc(Cl)cn1)c1ccc(Cl)cc1S2 [drawing 1506] | 0.0794
O=C(NCc1ccncc1)c1ccc2c(c1)N=C(c1ccc(Cl)cc1)c1ccccc1S2 [drawing 1294] | 0.02
CC(NC(=O)c1ccc2c(c1)N=C(c1ccc(F)cc1)c1ccccc1S2)c1ccccc1 (stereo not drawn) [drawing 1471] | 0.00794
O=C(NCc1cccc(Cl)c1)c1ccc2c(c1)N=C(c1ccc(F)cc1)c1ccccc1[S+]2[O-] (stereo not drawn) [drawing 1390] | 0.0316
CCN(CCNC(=O)c1ccc2c(c1)N=C(c1ccc(F)cc1)c1ccccc1S2)c1ccccc1 [drawing 1297] | 0.00251

Further lines, results first:

Ki [µM] | SMILES
0.0794 | CCCC1=Nc2cc(C(=O)NCc3ccc(F)cc3)ccc2Sc2ccccc21 [drawing 1529]
0.0126 | Cc1ccsc1C1=Nc2cc(C(=O)NCCC(F)(F)F)ccc2Sc2ccccc21 [drawing 1198]
0.00631 | CCCCNC(=O)c1ccc2c(c1)N=C(C1CCCCC1)c1ccccc1S2 [drawing 1417]
0.0126 | Cc1ccsc1C1=Nc2cc(C(=O)NN3CCCCC3)ccc2Sc2ccccc21 [drawing 1182]
0.0398 | CCCCNC(=O)c1ccc2c(c1)N=C(c1ccc(Cl)cc1Cl)c1ccccc1S2 [drawing 1406]
0.0631 | O=C(NCCc1ccc(Cl)cc1)c1ccc2c(c1)N=C(N1CCC(F)(F)CC1)c1ccccc1S2 [drawing 1492]
0.00794 | O=C(NCCCC(F)(F)F)c1ccc2c(c1)N=C(c1ccccn1)c1ccccc1S2 [drawing 1473]
0.00398 | O=C(NCc1ccccc1)c1ccc2c(c1)N=C(C1CCCCC1)c1ccccc1S2 [drawing 1343]
0.0501 | CC(C)NC(=O)c1ccc2c(c1)N=C(c1ccc(F)cc1)c1ccccc1S2 [drawing 1429]
0.00794 | C[C@@H]1CCC[C@H](C)N1NC(=O)c1ccc2c(c1)N=C(c1ccc(Cl)cc1F)c1ccccc1S2 [drawing 1474]
0.00794 | CCCCNC(=O)c1ccc2c(c1)N=C(c1cccc(Cl)c1)c1cc(F)ccc1S2 [drawing 1447]
0.002 | O=C(NCCC(F)(F)F)c1ccc2c(c1)N=C(c1ccc(Cl)s1)c1ccccc1S2 [drawing 1273]
0.0158 | CCCNC(=O)c1ccc2c(c1)N=C(c1ccc(Cl)s1)c1ccccc1S2 [drawing 1236]
0.0631 | Cc1ccsc1C1=Nc2cc(C(=O)NC(C)C)ccc2Sc2ccccc21 [drawing 1478]
0.0501 | CCOCCNC(=O)c1ccc2c(c1)N=C(c1ccc(F)cc1)c1ccccc1S2 [drawing 1446]
0.002 | COc1ccc(C2=Nc3cc(C(=O)NC4CCCCC4)ccc3Sc3ccccc32)cc1 [drawing 1282]
0.001 | O=C(NCCC(F)(F)F)c1ccc2c(c1)N=C(c1cccc(Cl)c1)c1ccccc1S2 [drawing 1250]
0.0501 | COCCNC(=O)c1ccc2c(c1)N=C(c1cccc(Cl)c1)c1ccccc1S2 [drawing 1461]
0.0794 | O=C(NN1CCCCCC1)c1ccc2c(c1)N=C(c1ccc(Cl)cc1Cl)c1ccccc1S2 [drawing 1522]
0.002 | CCCCNC(=O)c1ccc2c(c1)N=C(c1ccc(Cl)c(F)c1)c1ccccc1S2 [drawing 1274]
0.02 | CCCCNC(=O)c1ccc2c(c1)N=C(c1ccc(Cl)s1)c1ccc(F)cc1S2 [drawing 1267]
0.01 | O=C(NCCCc1ccccc1)c1ccc2c(c1)N=C(N1CCCCC1)c1ccccc1S2 [drawing 1533]
0.00398 | O=C(NCCc1ccc(Cl)cc1)c1ccc2c(c1)N=C(N1CCCCC1)c1ccccc1S2 [drawing 1345]
0.01 | Cc1ccsc1C1=Nc2cc(C(=O)NC3CCCCC3)ccc2Sc2ccccc21 [drawing 1531]
0.0398 | O=C(NN1CCCCC1)c1ccc2c(c1)N=C(N1CCCCC1)c1ccccc1S2 [drawing 1397]
0.0398 | O=C(NC1CCC(F)(F)CC1)c1ccc2c(c1)N=C(c1ccccn1)c1ccccc1S2 [drawing 1414]
0.01 | COc1ccc(C2=Nc3cc(C(=O)NCC(C)C)ccc3Sc3ccccc32)cc1 [drawing 1508]
0.0631 | C[C@@H]1CCC[C@H](C)N1NC(=O)c1ccc2c(c1)N=C(c1ccccc1F)c1ccccc1S2 [drawing 1495]

Same assay, conditions: rat brain membranes; 3 nM [3H]SR141716A; read-out: Rat Brain pKi (converted)

Ki [µM] | SMILES
0.0501 | Cc1ccc(N2CCN(C(=O)c3ccc4c(c3)N=C(c3ccc(Cl)cc3)c3ccccc3S4)CC2)c(C)c1 [Example 19]
